Source: paper PMC12257413, “Discovery of a Novel sp^3‑Rich M1 Positive Allosteric Modulators (PAMs) Chemotype via Scaffold Hopping” (ACS Medicinal Chemistry Letters, 2025)

How the values were obtained:
[1] = Plasma protein binding by equilibrium dialysis, human plasma; type: in vitro ADME; conditions: fraction unbound in human plasma
Method: for 2 seconds (excitation, 480 nm; emission, 530 nm), first add occurred by adding 20 µL of test compound to the cells, and the response was measured for 140 seconds. This is followed by second add; 10 µL (5X) of an EC20 concentration of ACh agonist was added to the cells, and the response of the cells was measured for 125 seconds. Immediately, the third add occurred by adding 12 ul assay buffer or 5X of an EC max concentration of ACh and the response of the cells was measured for 90 seconds. Assay buffer was added to the wells that incubated with compounds followed by EC20 concentration of ACh. […] Calcium fluorescence was recorded as fold over basal fluorescence and raw data were normalized to the maximal response to ACh agonist. Potency (EC50) and maximum response (% ACh Max) for compounds was determined using a four -parameter logist ical equation using GraphPad Prism (La Jolla, CA) or the Dotmatics software platform ( Woburn, MA) : […]
The protein binding of each compound was determined in plasma via equilibrium dialysis employing rapid equilibrium dialysis (RED) plates (ThermoFisher Scientific, Rochester, NY). […]
same manner as the plasma samples in the previously described plasma protein binding assay. Fraction unbound for both plasma and brain samples was determined using Equation 4. […]

[2] = Brain to plasma ratio (PK/PBL cassette); type: in vivo; conditions: rat
Method: In vivo DMPK experimental:
Determination of brain to plasma ratio:
Sample Analysis: Concentrations in plasma and brain homogenates were quantified by liquid chromatography tandem mass spectrometry (LC-MS/MS). Whole brains were homogenized in 3 mL of 70:30 IPA:water in a mini bead beater for 3 min, and centrifuged at 3,500 g for 5 min. 5 uL of the supernatant was diluted in 15 uL of blank plasma for quantification of the analytes. Plasma samples were centrifuged at 3,500 g for 5 min. A standard curve was generated by diluting the analytes DMSO stocks with blank plasma to obtain a final concentration of 10,000 ng/ml followed by a serial dilution down to 0.5 ng/ml. […]
Plasma and brain tissue samples originating from in vivo studies were analyzed by electrospray ionization using an AB Sciex Q-TRAP 5500 (Foster City, CA) that was coupled to a Shimadzu LC-20AD pump (Columbia, MD) and a Leap Technologies CTC PAL auto-sampler (Carrboro, NC). […]
transitioning to 10% B over 0.05 min. […] All data were analyzed using AB Sciex Analyst 1.5.1 software.
Brain plasma concentration ratio (Kp) was calculated by dividing brain concentration by plasma concentration for each animal. Unbound brain to unbound plasma concentration ratio (Kp,uu) is calculated using the following formula: Kp,uu = (Brain ng/g x brain fu)/(plasma ng/ml x plasma fu).

SMILES | Human fuplasma [1] | Kp [2]
Cn1cc(-c2ccc(Cc3cc(C(=O)N[C@H]4CCOC[C@@H]4O)nn3C3CCCC3)cc2)cn1 [17g] | 0.08 | 0.12
Cn1cc(-c2ccc(Cc3cc(C(=O)N[C@H]4CCCC[C@@H]4O)nn3C3CCCC3)cc2)cn1 [17k] | 0.01 | 0.63
